Laboratory results reported in publication PMC9060465 (Proceedings of the National Academy of Sciences of the …, 2022).
pEC50, pKi: −log10 of the molar value.

Assays:
GLP-1R [1] = molecular target: T1, GLP-1R (Homo sapiens, UniProt P43220); experiment: GLP-1R low density cAMP accumulation in HEK293 cells; format: cell-based; parameters: expressed in transfected cells; host or cells: HEK293; conditions: efficacy (% Top), normalized to GLP-1(7-36); (SEM)
Description: (§1) Fig. 4. […] (B) Ligand-induced GTPγS binding of Gαs was performed using the GIPR-expressing membranes. […] (C) Agonist-stimulated cAMP production was measured in human GIPR expressing HEK293 cells. […] (E) Ligand-induced GTPγS binding of Gαs was performed using the GLP-1R-expressing membranes. […] (F) Agonist-stimulated cAMP production was measured in human GLP-1R-expressing HEK293 cells. […] Data presented are representative of n ≥ 3 independent experiments. Summarized data are shown in SI Appendix, Table 2. log M; log Molar.
(§2) We note that the albumin-binding propensity of fatty acid-modified peptides can confound a pharmacological comparison of molecules, given the common use of albumin and serum as nonspecific blocking agents in biological assays. Therefore, to obviate this, entirely albumin-free assays supplemented with bovine casein or bacitracin were used to prevent nonspecific binding ([10]). […]
(§3) Middle Panel: The affinity (Ki) of ligands for the GLP-1R was […]
(§4) Functional potency (EC50) and efficacy (% Top) of ligands to induce Gα s-GTPγS binding and cAMP accumulation in HEK293 cells expressing GLP-1R were determined. The equilibrium affinity (KD) of ligands for the immobilized ectodomain of the GLP-1R were quantified by surface plasmon resonance. […]
(§5) SPR data were analyzed using T200 evaluation software (Cytiva). All data are presented as geometric means with SEM and n values according to established practices. ND, not determined. NA, not applicable.
Target sequence in this assay (P43220 24-463): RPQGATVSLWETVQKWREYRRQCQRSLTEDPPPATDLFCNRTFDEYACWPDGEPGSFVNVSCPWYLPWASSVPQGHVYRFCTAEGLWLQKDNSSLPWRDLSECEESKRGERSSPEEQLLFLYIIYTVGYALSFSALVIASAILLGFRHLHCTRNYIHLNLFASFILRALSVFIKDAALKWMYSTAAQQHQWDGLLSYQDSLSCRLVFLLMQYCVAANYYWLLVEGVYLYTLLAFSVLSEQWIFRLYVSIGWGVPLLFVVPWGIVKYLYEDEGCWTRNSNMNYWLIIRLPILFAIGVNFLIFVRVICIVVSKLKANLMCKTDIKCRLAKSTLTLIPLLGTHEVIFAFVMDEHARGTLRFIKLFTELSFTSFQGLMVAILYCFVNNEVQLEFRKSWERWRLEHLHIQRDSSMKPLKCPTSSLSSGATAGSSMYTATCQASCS

human GIPR [2] = molecular target: T2, human GIPR (Homo sapiens, UniProt P48546); experiment: [125I]GIP(1-42) competition binding, GIPR-expressing cell membranes; conditions: membranes of HEK293 cells expressing human GIPR, albumin-free, geometric mean (SEM, n)
T2 construct: expressed in transfected cells; host or cells: HEK293
T2 sequence (P48546 22-466): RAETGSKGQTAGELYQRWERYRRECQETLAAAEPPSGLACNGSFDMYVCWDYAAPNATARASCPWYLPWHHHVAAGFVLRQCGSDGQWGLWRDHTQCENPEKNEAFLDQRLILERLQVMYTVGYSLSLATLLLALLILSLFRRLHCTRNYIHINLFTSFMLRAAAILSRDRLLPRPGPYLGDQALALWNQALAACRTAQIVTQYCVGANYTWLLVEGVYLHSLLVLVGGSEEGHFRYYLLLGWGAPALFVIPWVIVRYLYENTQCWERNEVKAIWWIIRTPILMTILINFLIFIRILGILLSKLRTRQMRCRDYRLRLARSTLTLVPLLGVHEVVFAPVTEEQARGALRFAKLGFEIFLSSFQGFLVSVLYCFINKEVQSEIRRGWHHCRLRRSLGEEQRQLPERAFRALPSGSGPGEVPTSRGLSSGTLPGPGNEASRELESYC
Text: (§6) We note that the albumin-binding propensity of fatty acid-modified peptides can confound a pharmacological comparison of molecules, given the common use of albumin and serum as nonspecific blocking agents in biological assays. Therefore, to obviate this, entirely albumin-free assays supplemented with bovine casein or bacitracin were used to prevent nonspecific binding ([10]).
(§7) Functional potency (EC50)
(§8) and efficacy (% Top) of ligands to induce Gα s -GTPγS binding and cAMP accumulation in HEK293 cells expressing GIPR were determined. The equilibrium affinity (KD) of
(§9) ligands for the immobilized ectodomain of the GIPR were quantified by surface plasmon resonance. […]
(§10) SPR data were analyzed using T200 evaluation software (Cytiva). All data are presented as geometric means with SEM and n values
(§11) according to established practices. ND, not determined. NA, not applicable.

GLP-1R [3] = molecular target: T1, GLP-1R; experiment: Ligand-induced GLP-1R internalization, SNAP-GLP-1R HEK293 cells; format: cell-based; conditions: efficacy (% Top), percent internalization compared to maximal GLP-1; (SEM)
Target sequence in this assay (P43220 24-463): as the sequence (P43220 24-463) above

GLP-1R [4] = molecular target: T1, GLP-1R; experiment: GRK2 recruitment to the GLP-1R, NanoBRET; format: cell-based; parameters: expressed in transfected cells; host or cells: freestyle HEK cells; conditions: efficacy (% Top), relative to maximal GLP-1; (SEM)
Description: After 48 h, transfected cells were incubated in phosphate-buffered saline (PBS) containing 0.1% (wt/vol) bovine casein and varying concentrations of the ligands. […]
The potency (EC50) and efficacy (% Top) for ligands to induce GLP-1R Internalization were
determined using diffusion-enhanced resonance energy transfer.
relative efficacy for NanoBRET assays. SPR data were analyzed using T200 evaluation software (Cytiva). All data are presented as geometric means with SEM and n values
as §11
Target sequence in this assay (P43220 24-463): as the sequence (P43220 24-463) above
Target sequence in this assay (P25098 whole entry partner): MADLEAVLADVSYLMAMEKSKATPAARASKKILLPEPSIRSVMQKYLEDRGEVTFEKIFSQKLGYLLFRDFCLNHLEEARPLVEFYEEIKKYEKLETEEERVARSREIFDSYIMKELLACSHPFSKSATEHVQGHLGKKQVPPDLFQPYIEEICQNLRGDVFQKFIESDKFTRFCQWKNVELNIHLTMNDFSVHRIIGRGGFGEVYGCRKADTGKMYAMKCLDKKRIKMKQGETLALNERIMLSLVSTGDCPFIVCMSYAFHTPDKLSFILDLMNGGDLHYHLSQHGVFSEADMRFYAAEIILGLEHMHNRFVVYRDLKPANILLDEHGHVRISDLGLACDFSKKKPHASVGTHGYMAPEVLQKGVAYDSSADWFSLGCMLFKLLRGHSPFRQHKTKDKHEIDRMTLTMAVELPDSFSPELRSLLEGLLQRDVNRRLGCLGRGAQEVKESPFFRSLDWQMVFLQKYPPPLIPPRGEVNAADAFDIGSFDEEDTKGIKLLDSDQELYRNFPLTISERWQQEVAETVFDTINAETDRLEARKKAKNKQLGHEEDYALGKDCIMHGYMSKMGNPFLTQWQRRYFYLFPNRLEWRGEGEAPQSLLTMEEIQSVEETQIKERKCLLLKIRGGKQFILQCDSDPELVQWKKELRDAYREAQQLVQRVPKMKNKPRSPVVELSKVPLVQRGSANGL

GLP-1R [5] = molecular target: T1, GLP-1R; experiment: β-arrestin 1 recruitment to the GLP-1R, NanoBRET; format: cell-based; parameters: expressed in transfected cells; conditions: efficacy (% Top), relative efficacy to GLP-1; (SEM)
Description: Functional potency (EC50) […]
and efficacy (% Top) of ligands to induce Gα s -GTPγS binding and cAMP accumulation in HEK293 cells expressing GIPR were determined. The equilibrium affinity (KD) of ligands for the immobilized ectodomain of the GIPR were quantified by surface plasmon resonance. Middle Panel: The affinity (Ki) of ligands for the GLP-1R was […]
as §4
Target sequence in this assay (P43220 24-463): as the sequence (P43220 24-463) above
Target sequence in this assay (P49407 whole entry partner): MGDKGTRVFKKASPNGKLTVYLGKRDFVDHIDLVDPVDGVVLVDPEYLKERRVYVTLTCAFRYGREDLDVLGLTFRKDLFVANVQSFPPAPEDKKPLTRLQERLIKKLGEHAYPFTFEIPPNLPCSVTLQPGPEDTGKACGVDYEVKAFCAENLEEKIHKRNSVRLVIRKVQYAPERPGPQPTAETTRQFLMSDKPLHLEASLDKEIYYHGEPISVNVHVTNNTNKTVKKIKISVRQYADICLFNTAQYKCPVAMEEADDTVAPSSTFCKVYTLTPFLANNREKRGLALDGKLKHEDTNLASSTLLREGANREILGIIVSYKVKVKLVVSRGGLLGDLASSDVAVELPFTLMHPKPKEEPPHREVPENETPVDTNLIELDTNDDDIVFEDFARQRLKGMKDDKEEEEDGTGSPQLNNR
recruitment to the GLP-1R were determined using the NanoBRET approach. The potency (EC50) and efficacy (% Top) for ligands to induce GLP-1R Internalization were determined using diffusion-enhanced resonance energy transfer. […]
relative efficacy for NanoBRET assays. SPR data were analyzed using T200 evaluation software (Cytiva). All data are presented as geometric means with SEM and n values according to established practices. ND, not determined. NA, not applicable.

human GIPR [6] = molecular target: T2, human GIPR; experiment: GIPR Gαs [35S]GTPγS binding, GIPR-expressing membranes; format: biochemical; conditions: Gαs-GTPγS binding, GIPR-expressing membranes; albumin-free; geometric mean (SEM, n); read-out: GIPR GTPγS Recruitment EC50
Description: as §1, §6, §7, §8, §9, §10, §11

GLP-1R [7] = molecular target: T1, GLP-1R; experiment: GLP-1R Gαs [35S]GTPγS binding, GLP-1R-expressing membranes; format: biochemical; parameters: expressed in transfected cells; host or cells: HEK293; conditions: efficacy (% Top), normalized to GLP-1(7-36); (SEM)
Description: as §1, §2, §3, §4, §5
Target sequence in this assay (P43220 24-463): as the sequence (P43220 24-463) above

human GIPR [8] = molecular target: T2, human GIPR; experiment: GIPR low density cAMP accumulation in HEK293 cells; format: cell-based
Description: as §1, §6, §7, §8, §9, §10, §11

In the case of CC[C@H](C)[C@H](NC(=O)[C@H](Cc1ccccc1)NC(=O)[C@H](CCC(=O)O)NC(=O)[C@H](CCCCN)NC(=O)[C@H](C)NC(=O)[C@H](C)NC(=O)[C@H](CCC(N)=O)NC(=O)CNC(=O)[C@H](CCC(=O)O)NC(=O)[C@H](CC(C)C)NC(=O)[C@H](Cc1ccc(O)cc1)NC(=O)[C@H](CO)NC(=O)[C@H](CO)NC(=O)[C@@H](NC(=O)[C@H](CC(=O)O)NC(=O)[C@H](CO)NC(=O)[C@@H](NC(=O)[C@H](Cc1ccccc1)NC(=O)[C@@H](NC(=O)CNC(=O)[C@H](CCC(=O)O)NC(=O)[C@H](C)NC(=O)[C@@H](N)Cc1ccc(O)cc1)[C@@H](C)O)[C@@H](C)O)C(C)C)C(=O)N[C@@H](C)C(=O)N[C@@H](Cc1c[nH]c2ccccc12)C(=O)N[C@@H](CC(C)C)C(=O)N[C@H](C(=O)N[C@@H](CCCCN)C(=O)NCC(=O)N[C@@H](CCCNC(=N)N)C(N)=O)C(C)C [GLP-1 H7Y, reference compound], the “GLP-1R Low Density cAMP Top” value (GLP-1R [1]) was 104 (4) %, the pKi (human GIPR [2]) was < 6.89 and the “GLP-1R Internalization Top” value (GLP-1R [3]) was 73.1 (3.4) %. For the same compound, the “GLP-1R GRK2 Recruitment Top” value (GLP-1R [4]) was 54.5 (2.1) %, the “GLP-1R β-Arr1 Recruitment Top” value (GLP-1R [5]) was 35.3 (3.8) % and the pEC50 (human GIPR [6]) was < 6.00. The “GLP-1R GTPγS Recruitment Top” value (GLP-1R [7]) was 80.7 (2.2) %, the pEC50 (human GIPR [8]; cAMP accumulation, HEK293 cells expressing GIPR, albumin-free, geometric mean (SEM, n)) was < 5.40 and the “GIPR Low Density cAMP Top” value (human GIPR [8]; efficacy (% Top), normalized to GIP(1-42), (SEM)) was 39.4(9.5) %.
